The values below come from PubChem BioAssay AID1918945 (Molecular Pharmacology Branch, DTP, NCI, 2023).

The structures appear in SMILES notation. Values joined by “and” are separate entries in the source; they are usually repeats but may differ in a detail not shown here. Equal values may be shown once. A value given as a limit tells only on which side of the number the result lay.

The assay has as its system 883617-216-R-J1-PDC complex spheroid viability. Kind of assay: Anticancer human tumor 883617-216-R-J1-PDC patient-derived bladder carcinoma cell line growth inhibition. The settings on record: for viability, T/C: stronger effect = lower value. An outline of the steps: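 Complex spheroids of tumor cells with HUVEC and human MSCs, exposed to iadademstat combined with other agents. Each agent tested in half-log steps from near clinical Cmax (else 10 microM top), DMSO ≤0.25%.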

[1] abbreviates: curve of first compound, second compound 0.1 µM.
Setting [2] is: curve of first compound, second compound 0.316 µM.
Where [3] appears, read: curve of first compound, second compound 1 µM.
The mark [4] stands for this setting: curve of first compound, second compound 3.16 µM.
[5] abbreviates: curve of first compound, second compound 10 µM.
[6] abbreviates: second compound 0.1 µM, first compound 0.00949 µM.
[7] abbreviates: second compound 0.1 µM, first compound 0.03 µM.
The mark [8] stands for this setting: second compound 0.1 µM, first compound 0.0949 µM.
Where [9] appears, read: second compound 0.1 µM, first compound 0.3 µM.
[10] abbreviates: second compound 0.316 µM, first compound 0.00949 µM.
[11] abbreviates: second compound 0.316 µM, first compound 0.03 µM.
[12] abbreviates: second compound 0.316 µM, first compound 0.0949 µM.
The mark [13] stands for this setting: second compound 0.316 µM, first compound 0.3 µM.
The mark [14] stands for this setting: second compound 1 µM, first compound 0.00949 µM.
Where [15] appears, read: second compound 1 µM, first compound 0.03 µM.
Setting [16] is: second compound 1 µM, first compound 0.0949 µM.
Setting [17] is: second compound 1 µM, first compound 0.3 µM.
The mark [18] stands for this setting: second compound 3.16 µM, first compound 0.00949 µM.
Setting [19] is: second compound 3.16 µM, first compound 0.03 µM.
Where [20] appears, read: second compound 3.16 µM, first compound 0.0949 µM.
[21] abbreviates: second compound 3.16 µM, first compound 0.3 µM.
Where [22] appears, read: second compound 10 µM, first compound 0.00949 µM.
The mark [23] stands for this setting: second compound 10 µM, first compound 0.03 µM.
Where [24] appears, read: second compound 10 µM, first compound 0.0949 µM.
Where [25] appears, read: second compound 10 µM, first compound 0.3 µM.
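Also: exposure lasted seven days after three days of spheroid growth.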
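For viability, T/C in this document: 100% = DMSO vehicle control luminescence.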

For `Nc1ccccc1NC(=O)c1ccc(CNC(=O)OCc2cccnc2)cc1`, the viability, T/C is, setting by setting: (compound 0.00949 µM) 110% and 105%; (compound 0.03 µM) 94.2% and 104%; (compound 0.0949 µM) 64.6% and 56.3%; (compound 0.3 µM) 33.3% and 36%; (compound 0.949 µM) 15.7% and 17.6%; (compound 3 µM) 0.87% and 1.11%. Where the note is “curve of compound”, the 50% inhibitory concentration (IC50) is 167 nM and 163 nM.
For `CC1COCCN1c1cc(-c2ccnn2C)c2ccnc(-c3ccn[nH]3)c2n1` (centres undefined), the viability, T/C is 83.2% and 50.8% (compound 0.00316 µM); 64.8% and 42.2% (compound 0.01 µM); 47% and 33.7% (compound 0.0316 µM); 35% and 27.4% (compound 0.1 µM); 34.6% and 23.9% (compound 0.316 µM); 26.3% and 21.2% (compound 1 µM). The half-inhibitory concentration (IC50) (curve of compound) is 26.5 nM and 3.53 nM.
As for `CC1(C)CCC(CN2CCN(c3ccc(C(=O)NS(=O)(=O)c4ccc(NCC5CCOCC5)c([N+](=O)[O-])c4)c(Oc4cnc5[nH]ccc5c4)c3)CC2)=C(c2ccc(Cl)cc2)C1`, the viability, T/C reads like this: (compound 0.0316 µM) 107% and 103%; (compound 0.1 µM) 111% and 102%; (compound 0.316 µM) 111% and 99%; (compound 1 µM) 109% and 106%; (compound 3.16 µM) 111% and 102%; (compound 10 µM) 34.5% and 27.7%. Also, the IC50 (curve of compound) was 7890 nM and 7100 nM.
Take `CC(C)CC(NC(=O)C(Cc1ccccc1)NC(=O)c1cnccn1)B(O)O` (centres undefined): the viability, T/C is, setting by setting: (compound 0.000316 µM) 103% and 98.5%; (compound 0.001 µM) 95.8% and 43.5%; (compound 0.00316 µM) 13.8% and 0.88%; (compound 0.01 µM) 1.11% and 0.16%; (compound 0.0316 µM) 1.27% and 0.13%; (compound 0.1 µM) 0.62% and 0.21%. For the same molecule, the IC50 (curve of compound) was 1.9 nM and 0.872 nM.
Regarding `NS(=O)(=O)OCC1CC(n2ccc3c(NC4CCc5ccccc54)ncnc32)CC1O` (centres undefined) + NC1CC1c1ccc(-c2cccc(O)c2)cc1, the IC50 under setting [1] worked out at 221 nM; the IC50 under setting [2] was 230 nM; the IC50 under setting [3] is 219 nM; the IC50 under setting [4] stood at 202 nM; the IC50 under setting [5] came to 155 nM. For the same molecule, the viability, T/C reads like this: under setting [6], 123%; under setting [7], 144%; under setting [8], 112%; under setting [9], 27.5%; (second compound 0.1 µM, first compound 0.949 µM) 10.8%; (second compound 0.1 µM, first compound 3 µM) 8.35%. Further, the viability, T/C by setting is: under setting [10], 124%; under setting [11], 150%; under setting [12], 127%; under setting [13], 26.7%; (second compound 0.316 µM, first compound 0.949 µM) 12.9%; (second compound 0.316 µM, first compound 3 µM) 8.2%. For the same molecule, the viability, T/C under setting [14] is 135%; the viability, T/C under setting [15] was 159%; the viability, T/C under setting [16] is 111%; the viability, T/C under setting [17] was 28.3%; the viability, T/C (second compound 1 µM, first compound 0.949 µM) was 13%; the viability, T/C (second compound 1 µM, first compound 3 µM) is 10.2%. Besides, the viability, T/C is, setting by setting: under setting [18], 122%; under setting [19], 157%; under setting [20], 94.5%; under setting [21], 29.7%; (second compound 3.16 µM, first compound 0.949 µM) 10.5%; (second compound 3.16 µM, first compound 3 µM) 9.87%. Further, the viability, T/C was 126% under setting [22]; 139% under setting [23]; 71.8% under setting [24]; 27% under setting [25]; 12.9% (second compound 10 µM, first compound 0.949 µM); 9.23% (second compound 10 µM, first compound 3 µM).
Consider `CC[C@@]1(O)C(=O)OCc2c1cc1n(c2=O)Cc2cc3c(CN(C)C)c(O)ccc3nc2-1`, for which the viability, T/C (compound 0.000316 µM) was 95.7% and 78.2%; the viability, T/C (compound 0.001 µM) is 78.1% and 65.8%; the viability, T/C (compound 0.00316 µM) was 60.2% and 37.7%; the viability, T/C (compound 0.01 µM) is 38.6% and 29.1%; the viability, T/C (compound 0.0316 µM) is 39.1% and 27.6%; the viability, T/C (compound 0.1 µM) is 27.7% and 20%. In addition, the concentration for half-maximal inhibition (IC50) (curve of compound) was 5.86 nM and 1.95 nM.
Consider `COc1cc(Nc2ncc3c(n2)-c2ccc(Cl)cc2C(c2c(F)cccc2OC)=NC3)ccc1C(=O)O`, for which the viability, T/C by setting is: (compound 0.00316 µM) 99.2% and 68.6%; (compound 0.01 µM) 73.5% and 63.5%; (compound 0.0316 µM) 53.3% and 44%; (compound 0.1 µM) 49% and 36.2%; (compound 0.316 µM) 45.1% and 34.5%; (compound 1 µM) 48.5% and 34.6%. The IC50 (curve of compound) was 66.9 nM and 22.3 nM.
In the case of `NS(=O)(=O)OCC1CC(n2ccc3c(NC4CCc5ccccc54)ncnc32)CC1O` (centres undefined), the viability, T/C (compound 0.00949 µM) is 105% and 114%; the viability, T/C (compound 0.03 µM) is 120% and 108%; the viability, T/C (compound 0.0949 µM) was 103% and 94.9%; the viability, T/C (compound 0.3 µM) was 59.1% and 27.2%; the viability, T/C (compound 0.949 µM) was 21.5% and 8.78%; the viability, T/C (compound 3 µM) was 14% and 6.66%. Moreover, the IC50 (curve of compound) was 395 nM and 204 nM.
Take `Nc1ccn(C2OC(CO)C(O)C2(F)F)c(=O)n1` (centres undefined) + NC1CCC(NC2CC2c2ccccc2)CC1: the IC50 runs as follows: under setting [1], below 0.949 nM; under setting [2], below 0.949 nM; under setting [3], below 0.949 nM; under setting [4], below 0.949 nM; under setting [5], below 0.949 nM. Also, the viability, T/C reads like this: (second compound 0.1 µM, first compound 0.000949 µM) 28.7%; (second compound 0.1 µM, first compound 0.003 µM) 20.4%; under setting [6], 24.2%; under setting [7], 26.4%; under setting [8], 25.9%; under setting [9], 18.2%. Besides, the viability, T/C is 24.9% (second compound 0.316 µM, first compound 0.000949 µM); 17.3% (second compound 0.316 µM, first compound 0.003 µM); 23.6% under setting [10]; 22.4% under setting [11]; 23.4% under setting [12]; 23.6% under setting [13]. In addition, the viability, T/C was 28.2% (second compound 1 µM, first compound 0.000949 µM); 19.7% (second compound 1 µM, first compound 0.003 µM); 24.1% under setting [14]; 22.6% under setting [15]; 22% under setting [16]; 21.7% under setting [17]. Also, the viability, T/C reads like this: (second compound 3.16 µM, first compound 0.000949 µM) 24.7%; (second compound 3.16 µM, first compound 0.003 µM) 21.7%; under setting [18], 22.3%; under setting [19], 21.6%; under setting [20], 22.7%; under setting [21], 19.2%. Further, the viability, T/C (second compound 10 µM, first compound 0.000949 µM) was 30.5%; the viability, T/C (second compound 10 µM, first compound 0.003 µM) is 20.6%; the viability, T/C under setting [22] is 26.9%; the viability, T/C under setting [23] is 23.6%; the viability, T/C under setting [24] was 23%; the viability, T/C under setting [25] was 19.2%.

What is called viability, T/C is the ratio of treated to control. A word on the IC50: it is the concentration that gives 50% inhibition.
